From publication PMC9866191, “Novel 9-Benzylaminoacridine Derivatives as Dual Inhibitors of Phosphodiesterase 5 and Topoisomerase II for the Treatment of Colon Cancer” (Molecules, 2023)

Assays:
PDE5A = biological target: T1, PDE5A (Homo sapiens, UniProt O76074); test: Phosphodiesterase 5 HTRF cGMP assay; type: biochemical; conditions: for IC50: means ± S.D. (n = 4), read-out: PDE5 IC50; for inhibition at 10 µM: read-out: PDE5 % Inhibition at 10 μM
T1 construct: purchased BPS Bioscience, San Diego, CA, USA
Procedure: All the synthesized acridine derivatives were tested for their in vitro ability to inhibit PDE5A at a screening dose of 10 µM.
The enzyme activities of phosphodiesterase 5 (PDE5) were measured using an HTRF cGMP assay kit (Cisbio, Codolet, France). […] Afterward, the HTRF reagent (cGMP-d2 and anti-cGMP-cryptate) was added for 1 h at 25 °C, and PDE activity was assayed on an HTRF reader (Tecan Infinite F200 Pro).

[1] = system: panel of 60 human tumor cell lines; test: NCI 60-cell line one-dose screen (mean); type: cell-based; conditions: mean of the 60 cell lines, single dose 10^−5 M, read-out: Mean % Growth Inhibition
In short: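 Percent inhibition of cell growth was recorded after exposure to 10^−5 M compound. This primary screen used the full NCI-60 panel of human tumour lines.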

CCRF-CEM = test: NCI-60 one-dose screen; type: cell-based; conditions: Homo sapiens, Leukemia panel, single dose 10^−5 M, read-out: Growth inhibition %
EKVX = test: NCI-60 one-dose screen; type: cell-based; conditions: Homo sapiens, Non-small cell lung panel, single dose 10^−5 M, read-out: Growth inhibition %
HCT-15 = test: NCI-60 one-dose screen; type: cell-based; conditions: Homo sapiens; HCT-15, Colon Cancer panel; single dose 10^−5 M; read-out: Growth inhibition %
HL-60(TB) = test: NCI-60 one-dose screen; type: cell-based; conditions: Homo sapiens, Leukemia panel, single dose 10^−5 M, read-out: Growth inhibition %
HOP-92 = test: NCI-60 one-dose screen; type: cell-based; conditions: Homo sapiens; HOP-92, Non-small cell lung panel; single dose 10^−5 M; read-out: Growth inhibition %
HS 578T = test: NCI-60 one-dose screen; type: cell-based; conditions: Homo sapiens, Breast Cancer panel, single dose 10^−5 M, read-out: Growth inhibition %
HT29 = test: NCI-60 one-dose screen; type: cell-based; conditions: Homo sapiens, HT-29; HT29, Colon Cancer panel; single dose 10^−5 M; read-out: Growth inhibition %
M14 = test: NCI-60 one-dose screen; type: cell-based; conditions: Homo sapiens; M14, Melanoma panel; single dose 10^−5 M; read-out: Growth inhibition %
MALME-3M = test: NCI-60 one-dose screen; type: cell-based; conditions: Homo sapiens, Melanoma panel, single dose 10^−5 M, read-out: Growth inhibition %
MDA-MB-231/ATCC = test: NCI-60 one-dose screen; type: cell-based; conditions: Homo sapiens, Breast Cancer panel, single dose 10^−5 M, read-out: Growth inhibition %
MDA-MB-435 = test: NCI-60 one-dose screen; type: cell-based; conditions: Homo sapiens; MDA-MB-435, Melanoma panel; single dose 10^−5 M; read-out: Growth inhibition %
MOLT-4 = test: NCI-60 one-dose screen; type: cell-based; conditions: Homo sapiens; MOLT-4, Leukemia panel; single dose 10^−5 M; read-out: Growth inhibition %
NCI-H23 = test: NCI-60 one-dose screen; type: cell-based; conditions: Homo sapiens; NCI-H23, Non-small cell lung panel; single dose 10^−5 M; read-out: Growth inhibition %
NCI-H322M = test: NCI-60 one-dose screen; type: cell-based; conditions: Homo sapiens, Non-small cell lung panel, single dose 10^−5 M, read-out: Growth inhibition %
NCI-H460 = test: NCI-60 one-dose screen; type: cell-based; conditions: Homo sapiens; NCI-H460, Non-small cell lung panel; single dose 10^−5 M; read-out: Growth inhibition %
OVCAR-3 = test: NCI-60 one-dose screen; type: cell-based; conditions: Homo sapiens; OVCAR-3, Ovarian Cancer panel; single dose 10^−5 M; read-out: Growth inhibition %
OVCAR-4 = test: NCI-60 one-dose screen; type: cell-based; conditions: Homo sapiens; OVCAR-4, Ovarian Cancer panel; single dose 10^−5 M; read-out: Growth inhibition %
OVCAR-5 = test: NCI-60 one-dose screen; type: cell-based; conditions: Homo sapiens; OVCAR-5, Ovarian Cancer panel; single dose 10^−5 M; read-out: Growth inhibition %
OVCAR-8 = test: NCI-60 one-dose screen; type: cell-based; conditions: Homo sapiens; OVCAR-8, Ovarian Cancer panel; single dose 10^−5 M; read-out: Growth inhibition %
SK-MEL-2 = test: NCI-60 one-dose screen; type: cell-based; conditions: Homo sapiens; SK-MEL-2, Melanoma panel; single dose 10^−5 M; read-out: Growth inhibition %
SNB-75 = test: NCI-60 one-dose screen; type: cell-based; conditions: Homo sapiens; SNB-75, CNS Cancer panel; single dose 10^−5 M; read-out: Growth inhibition %
T-47D = test: NCI-60 one-dose screen; type: cell-based; conditions: Homo sapiens, T47D, Breast Cancer panel, single dose 10^−5 M, read-out: Growth inhibition %
TK-10 = test: NCI-60 one-dose screen; type: cell-based; conditions: Homo sapiens; TK-10, Renal Cancer panel; single dose 10^−5 M; read-out: Growth inhibition %
SF-268 = test: NCI-60 one-dose screen; type: cell-based; conditions: Homo sapiens; SF-268, CNS Cancer panel; single dose 10^−5 M; read-out: Growth inhibition %
LOX IMVI = test: NCI-60 one-dose screen; type: cell-based; conditions: Homo sapiens, Melanoma panel, single dose 10^−5 M, read-out: Growth inhibition %
IGROV1 = test: NCI-60 one-dose screen; type: cell-based; conditions: Homo sapiens, IGROV-1; IGROV1, Ovarian Cancer panel; single dose 10^−5 M; read-out: Growth inhibition %
HCT-116 = test: MTT cell proliferation assay, HCT-116; conditions: for % Inhibition at 10 µM: 72 h MTT, means ± SD; for IC50: read-out: IC50 μM, 72 h MTT, means ± SD, three experiments
Procedure: (§1) In the MTT assay, 96-well culture plates were used. A total of 7 × 10^4 cells per well were seeded, and test materials were added to the cells at various concentrations [47, 48]. Human cancer and non-cancer cell lines were purchased commercially from the American Type Culture Collection (ATCC). After 72 h, the cytotoxicity of the compounds and paclitaxel (as a positive control group) was detected using the MTT method (thiazolyl blue tetrazolium bromide, Sigma-M2128). Absorbance values at 570 and 620 nm (OD = OD570–OD620) were measured using an ELISA reader (Anthos Labtec Instruments, Salzburg, Austria).

CCD-966SK = test: MTT cell proliferation assay, CCD-966SK; conditions: CCD966SK skin fibroblast, 72 h MTT
Procedure: as §1

| Compound | IC50 (PDE5A) [µM] | inhibition at 10 µM (PDE5A) [%] | inhibition at 10 µM [1] [%] | inhibition at 10 µM (CCRF-CEM) [%] | inhibition at 10 µM (EKVX) [%] | inhibition at 10 µM (HCT-15) [%] | inhibition at 10 µM (HL-60(TB)) [%] | inhibition at 10 µM (HOP-92) [%] | inhibition at 10 µM (HS 578T) [%] | inhibition at 10 µM (HT29) [%] | inhibition at 10 µM (M14) [%] | inhibition at 10 µM (MALME-3M) [%] | inhibition at 10 µM (MDA-MB-231/ATCC) [%] | inhibition at 10 µM (MDA-MB-435) [%] | inhibition at 10 µM (MOLT-4) [%] | inhibition at 10 µM (NCI-H23) [%] | inhibition at 10 µM (NCI-H322M) [%] | inhibition at 10 µM (NCI-H460) [%] | inhibition at 10 µM (OVCAR-3) [%] | inhibition at 10 µM (OVCAR-4) [%] | other results |
| --- | --- | --- | --- | --- | --- | --- | --- | --- | --- | --- | --- | --- | --- | --- | --- | --- | --- | --- | --- | --- | --- |
| Fc1cccc(CNc2c3ccccc3nc3ccccc23)c1 [Compound 9, Acridin-9-yl-(3-fluorobenzyl)-amine] | 7.49 ± 2.2 | 55.9 ± 5.78 | 64.2 | 53.7 | 68 | 77.1 | 53 | 104 | 36.1 | 85.7 | 61.2 | 49.5 | 69.4 | 51.1 | 85.1 | 66.1 | 59.8 | 87.3 | 33 | 69.5 | inhibition at 10 µM (OVCAR-5): 56.2%; inhibition at 10 µM (OVCAR-8): 64%; inhibition at 10 µM (SK-MEL-2): 18.6%; inhibition at 10 µM (SNB-75): 37%; inhibition at 10 µM (T-47D): 57.3%; inhibition at 10 µM (TK-10): 35.9%; inhibition at 10 µM (SF-268): 37.9%; inhibition at 10 µM (LOX IMVI): 87.7%; inhibition at 10 µM (IGROV1): 74.4%; % Inhibition at 10 µM (HCT-116): 57.06 ± 1.36%; IC50 (HCT-116): 7.3 ± 0.33 µM; % Inhibition at 10 µM (CCD-966SK): 42.74 ± 2.09% |
| Cc1ccc(CNc2c3ccccc3nc3ccccc23)cc1 [Compound 4, Acridin-9-yl-(4-methylbenzyl)-amine] | 4.44 ± 1.82 | 74 ± 12.4 | 74.8 | 79.1 | 62.1 | 84.4 | 74.5 | 96.8 | 61.5 | 89.7 | 72 | 83.8 | 56.8 | 68.8 | 95.7 | 70.7 | 60.2 | 91.2 | 65.8 | 75.5 | inhibition at 10 µM (OVCAR-5): 61.9%; inhibition at 10 µM (OVCAR-8): 78.2%; inhibition at 10 µM (SK-MEL-2): 57.3%; inhibition at 10 µM (SNB-75): 58.3%; inhibition at 10 µM (T-47D): 71.9%; inhibition at 10 µM (TK-10): 64.2%; inhibition at 10 µM (SF-268): 48.1%; inhibition at 10 µM (LOX IMVI): 88.2%; inhibition at 10 µM (IGROV1): 80.6%; % Inhibition at 10 µM (HCT-116): 69.31 ± 2.09%; IC50 (HCT-116): 3.59 ± 0.27 µM; % Inhibition at 10 µM (CCD-966SK): 38.07 ± 5.90% |
| Fc1cccc(CNc2c3ccccc3nc3ccccc23)c1F [Compound 20, Acridin-9-yl-(2,3-difluorobenzyl)-amine] | 7.25 ± 2.21 | 57.9 ± 6.04 | 40.7 | 37.6 | 37.1 | 60.5 | 24 | 97.3 | 13 | 70.9 | 29.4 | 5.87 | 41.8 | 12.7 | 71.6 | 39.4 | 36.6 | 52 | 13.9 | 50.1 | inhibition at 10 µM (OVCAR-5): 26.8%; inhibition at 10 µM (OVCAR-8): 49.2%; inhibition at 10 µM (SK-MEL-2): -6.76%; inhibition at 10 µM (SNB-75): 21.2%; inhibition at 10 µM (T-47D): 31.7%; inhibition at 10 µM (TK-10): 10.8%; inhibition at 10 µM (SF-268): 16.6%; inhibition at 10 µM (LOX IMVI): 60.8%; inhibition at 10 µM (IGROV1): 47.3%; % Inhibition at 10 µM (HCT-116): 58.56 ± 3.21%; IC50 (HCT-116): 4.96 ± 0.02 µM; % Inhibition at 10 µM (CCD-966SK): 40.30 ± 3.56% |
| c1csc(-c2ccc(CNc3c4ccccc4nc4ccccc34)cc2)c1 [Compound 24, Acridin-9-yl-(4-thiophen-2-yl-benzyl)-amine] | > 10 | 42.9 ± 5.35 | 96.9 | 97.4 | 41 | 166 | 157 | 102 | 39.4 | 147 | 174 | 182 | 61.7 | 183 | 98 | 61.8 | 49.4 | 87.1 | 90.5 | 84.7 | inhibition at 10 µM (OVCAR-5): 32.9%; inhibition at 10 µM (OVCAR-8): 44.4%; inhibition at 10 µM (SK-MEL-2): 19.2%; inhibition at 10 µM (SNB-75): 63.9%; inhibition at 10 µM (T-47D): 28.1%; inhibition at 10 µM (TK-10): 34.9%; inhibition at 10 µM (SF-268): 37.1%; inhibition at 10 µM (LOX IMVI): 191%; inhibition at 10 µM (IGROV1): 90%; % Inhibition at 10 µM (HCT-116): 57.14 ± 3.10%; IC50 (HCT-116): 7 ± 0.56 µM; % Inhibition at 10 µM (CCD-966SK): 47.41 ± 2.48% |
| COc1ccc2nc3ccccc3c(NCc3ccc(F)cc3)c2c1 [Compound 28, (4-Fluorobenzyl)-(2-methoxyacridin-9-yl)-amine] | 5.31 ± 1.27 | 64.2 ± 7.47 | 92.2 | 81.7 | 77.6 | 95.9 | 135 | 111 | 73.9 | 99.8 | 84.7 | 105 | 83.3 | 76.1 | 99.5 | 86 | 77.4 | 94.5 | 68.8 | 86.4 | inhibition at 10 µM (OVCAR-5): 82%; inhibition at 10 µM (OVCAR-8): 80.5%; inhibition at 10 µM (SK-MEL-2): 65%; inhibition at 10 µM (SNB-75): 76.2%; inhibition at 10 µM (T-47D): 63.5%; inhibition at 10 µM (TK-10): 62.2%; inhibition at 10 µM (SF-268): 65.4%; inhibition at 10 µM (LOX IMVI): 167%; inhibition at 10 µM (IGROV1): 91.8%; % Inhibition at 10 µM (HCT-116): 75.53 ± 2.52%; IC50 (HCT-116): 2.51 ± 0.53 µM; % Inhibition at 10 µM (CCD-966SK): 60.66 ± 2.63%; IC50 (CCD-966SK; read-out: IC50 μM): 4.67 ± 0.07 µM |
